Values quoted from earlier work, collected in patent publication US20110264374A1, “Method, Computer Program Product and System for Individual Assessment of Alcohol Sensitivity” (UNIVERSITY OF VIRGINIA PATENT FOUNDATION, priority 2007, published 2011).

Key:
[1] = blood ethanol, oral ingestion; adopted from the literature [16, 24, 25]

CCO [ethanol, Ethyl Alcohol]
AUC (area under the curve) [1]: 230 µg·h/mL | Cmax [1]: 161.4 µg/mL | tmax [1]: 47 min | time to peak amount of alcohol in the blood (after consumption of one standard drink): 30 to 45 min | remainder not metabolized, excreted in sweat, urine and breath (in vivo): 10% | share of alcohol entering the body completely metabolized in the liver (in vivo): More than 90% | share of consumed alcohol absorbed from the small intestine (oral consumption): approx. 80% | share of consumed alcohol absorbed from the stomach (oral consumption): approx. 20%
